Source: patent US10238667B2, “Vitamin D receptor/SMAD genomic circuit gates fibrotic response” (Salk Institute for Biological Studies, priority 2013, dated 2019)

Columns and labels:
[1] = tested on: rat HSCs; experiment: Microarray of culture-induced activation of HSCs; assay type: cell-based; conditions: 3 days culture on plastic, 10 nM 1,25(OH)2D3
Description: VDR Signaling Suppresses TGFβ-induced Pro-Fibrotic Genes. (A) Heat map comparing 519 differentially expressed genes in freshly isolated rat HSCs (quiescent HSCs, Q-HSCs), activated HSCs (A-HSCs, 3 days culture on plastic) and cells cultures in the presence of 10 nM 1,25(OH)2D3 (A-HSCs+1,25(OH)2D3). Euclidean clustering of both rows and columns using log2 transformed microarray expression data, n=2 per treatment group. […] Data represents the mean±SEM of at least three independent experiments performed in triplicate. Asterisks denote statistically significant differences (Student's unpaired t-test, *p<0.05, **p<0.01). HSCs were isolated from 10-week old male C57BL/6J mice and Wistar rats by in situ pronase, collagenase perfusion and single-step Histogenz gradient as previously reported (Hendriks et al., 1985; Knook et al., 1982). Isolated HSCs were cultured in DMEM (Mediatech) containing 20% FBS (Hyclone) on 6-well plates for 40 hours prior to end-point assays. Total RNA from primary rat or mouse HSCs was isolated using the RNeasy mini kit (Qiagen) according to standard protocols. RNA integrity and quality was assessed using the Agilent Bioanalyzer and prepared for hybridization to Illumina rat or mouse gene expression arrays according to standard Illumina protocols. Feature extraction was performed using the Illumina GenomeStudio software. […]

[2] = tested on: C57BL/6J mice; experiment: CCl4 model of liver injury and fibrosis; assay type: in vivo, mouse
Description: LX-2 cells, a generous gift from Professor Scott Friedman, Mount Sinai School of Medicine, New York, N.Y., were cultured as described previously (Xu et al., 2005). […] For luciferase assays, DNA transfections were performed using Fugene 6 (Roche) following the manufacturer's instructions. […] RT-qPCR, total RNA was purified following TRIzol extraction and treated with DNaseI (Invitrogen). cDNA synthesis was carried out with iScript RT Supermix (Biorad). Quantitative PCR was performed in technical triplicates using SYBR Green reagent (Biorad). The relative standard curve method was used for quantitation (Biorad). Expression levels were calculated by normalization to either Gapdh (mouse) or U36B4 (human) quantities.
8 week-old male C57BL/6J mice were IP injected with 0.5 ml/kg body weight CCl4 (1:50 v/v in corn oil from Sigma) or vehicle (DMSO in corn oil) three times a week for 4 weeks. […] The animals were terminated 72 hours after the final CCl4 injection and whole livers and serum were collected for histological, cytological, biochemical and molecular analyses.
5 μm sections of formalin-fixed liver were stained following standard H&E and Sirius Red methods and reviewed by a pathologist who was blinded to the experimental conditions. Fibrosis was scored using the Ishak modified histological activity index (HAI) scoring system. Fibrosis was also quantified using Image J software on 10 non-contiguous Sirius Red stained sections. All images were obtained using a high-resolution Leica DFC420 digital camera mounted on an Olympus microscope equipped with ×4/0.13, ×10/0.30, ×20/0.50 and ×40/0.75 UplanFL N plan objective lenses and processed with the Leica Application Suite. Hepatic hydroxyproline content was measured using a commercial colorimetric assay from Biovision (K555-100).

[3] = tested on: SMAD3; experiment: Immunoprecipitation/Western blot of total and phosphorylated SMAD3 in LX-2 cells; assay type: cell-based, human; conditions: TGFβ1 1 ng/ml +/- calcipotriol 100 nM
Description: Nuclear extracts were immunoprecipitated using a SMAD2/3 antibody prior to Western blot analysis. Asterisks denote non-specific bands.
The whole cell lysates were obtained through RIPA buffer lysis while isolation of nuclear extract was performed as previously reported (Ding et al., 2008). Total and nuclear SMAD3 were immunoprecipitated from LX-2 whole cell and nuclear extracts, respectively, using anti-SMAD2/3 antibody (Santa Cruz, sc-133098) followed by SDS-PAGE and western blot detection by anti-SMAD3 (Cell Signaling, 9523) and anti-pSMAD3 (Cell Signaling, 9520) specific antibodies.

[4] = tested on: CBP, p300 and acetylated histone H3; experiment: ChIP-qPCR of CBP, p300 and acetylated histone H3 at COL1A1 regulatory region in LX-2 cells; assay type: cell-based, human; conditions: co-treated with calcipotriol 100 nM and TGFβ1 1 ng/ml
Text: (§1) FIGS. 12A-12B. Coactivator/Corepressor Recruitment and Histone H3 Acetylation Status at Regulatory Regions of Fibrotic Genes Co-occupied by VDR and SMAD. […] The level of occupancy is expressed relative to input chromatin in LX-2 cells treated with corresponding conditions. Data represents the mean+/−SEM of at least three independent experiments performed in triplicate. Asterisks denote statistically significant differences (Student's t test, *p<0.05). […] The level of occupancy is expressed relative to input chromatin in LX-2 cells treated with corresponding conditions.
(§2) Cells were then harvested for ChIP assay. The experimental procedure for ChIP was as previously described (Barish et al., 2010). Briefly, after fixation, nuclei from LX-2 cells were isolated, lysed and sheared with a Diagenode Bioruptor to yield DNA fragment sizes of 200-1000 base pairs followed by immunoprecipitation using antibodies listed below: normal rabbit IgG (Santa Cruz, sc-2027), VDR (Santa Cruz, sc-1008), SMAD3 (Abcam, ab28379) and histone H3 (Abcam, ab1791). For ChIP-Re-ChIP, after first ChIP, the immunoprecipitated DNA-protein complex was eluted from beads using 10 mM DTT, diluted 100-fold then re-immunoprecipitated with a second antibody, re-ChIP.

[5] = tested on: NCoR, SMRT, HDAC3, CoREST, LSD1, and G9a; experiment: ChIP-qPCR of corepressor recruitment at COL1A1 and COL1A2 regulatory regions in LX-2 cells; assay type: cell-based, human; conditions: calcipotriol 100 nM and TGFβ1 1 ng/ml
Text: as §1, §2

[6] = tested on: SMAD3; experiment: ChIP-qPCR time course of SMAD3 binding at COL1A1 regulatory region #1 in LX-2 cells; assay type: cell-based, human
Text: FIGS. 14A-14D. VDR/SMAD Genomic Circuit. […] Data represents the mean±SEM of at least three independent experiments performed in triplicate. Asterisks denote statistically significant differences compared to calcipotriol-induced VDR occupancy or TGFβ1-induced SMAD3 occupancy of corresponding time point (Student's unpaired t-test, *p<0.05, **p<0.01). […] Data represents the mean±SEM of at least three independent experiments performed in triplicate. (D) Model depicting proposed VDR/SMAD genomic circuit controlling pro-fibrogenic responses in HSCs.
as §2
Specifically, ChIP-qPCR was employed to monitor binding of VDR and SMAD3 to the cis-regulatory region of COL1A1 at multiple time points (0, 1, 2, 4, 6, 16 hours).

| Structure (SMILES) | culture-induced activation of HSCs (transcriptome) [1] | fibrosis (Sirius red staining, hepatic hydroxyproline content, histological fibrotic scoring) ([2]; CCl4 0.5 ml/kg IP 3 times per week, 4 weeks, calcipotriol 20 μg/kg oral gavage co-treatment) | serum calcium concentration ([2]; calcipotriol 20 μg/kg oral gavage, 4 weeks) | down-regulation of fibrotic marker genes Col1a1, Tgfb1 and Timp1 ([2]; hepatic gene expression, RT-qPCR, CCl4/calcipotriol co-treated vs CCl4) | fibrogenic response in liver ([2]; pre-treated with calcipotriol for 5 weeks prior to CCl4/calcipotriol co-treatment) | TGFβ1-induced phosphorylation and subsequent nuclear translocation of SMAD3 [3] | TGFβ1 induced recruitment of p300 and CBP and histone H3 hyperacetylation at COL1A1 regulatory region [4] | altered binding of corepressors to VDR/SMAD3 co-occupied regulatory regions [5] | SMAD3 recruitment reduced ([6]; after 4 hours, TGFβ1 + calcipotriol vs TGFβ1) [%] | time of maximum binding of SMAD3 post-TGFβ1 treatment ([6]; in the presence of calcipotriol 100 nM, TGFβ1 alone maximal at 4 hours) [h] |
| --- | --- | --- | --- | --- | --- | --- | --- | --- | --- | --- |
| C=C1/C(=C\C=C2/CCC[C@]3(C)C([C@H](C)CCCC(C)(C)O)CC[C@@H]23)C[C@@H](O)C[C@@H]1O (stereo partly drawn) [1,25(OH)2D3, 1α,25 dihydroxyvitamin D3] | attenuated |  |  |  |  |  |  |  |  |  |
| C=C1/C(=C\C=C2/CCC[C@]3(C)[C@@H]([C@H](C)/C=C/[C@@H](O)C4CC4)CC[C@@H]23)C[C@@H](O)C[C@@H]1O [calcipotriol, 1α,24-(OH)2-24-cyclopropyl-D3] |  | significant reduction in fibrosis | not significantly altered | 50-70% | nearly completely abrogated | did not significantly affect | lost | not detected | 70 | 1 |
